Measurements from patent EP4650362A1, “NEUROPROTECTIVE PSD-95 POLYPEPTIDE INHIBITOR AND USE THEREOF” (Beijing Tuo Jie Biopharmaceutical Co. Ltd., priority 2023, dated 2024).
Where two headings read alike, the source gives them in different places. Non-standard residues stand in square brackets, D forms with d. Residues, ends and D or L forms follow the SMILES beside them. No end group written: not given here. Tle = CC(C)(C)[C@H](N)C(=O)O; Dab = NCC[C@H](N)C(=O)O; Aib = CC(C)(N)C(=O)O

Test: pharmacokinetic study in beagle dogs, single intravenous infusion
Assay type: in vivo
Procedure: With standard beagle dogs as test animals, the pharmacokinetic behavior of a polypeptide compound administered via single intravenous infusion in beagle dogs (plasma) was studied.
For polypeptide compound 22, two dose groups were set: 1.2 nmol/g and 0.4 nmol/g. For NA-1, one dose group was set: 1.2 nmol/g. Each group consisted of four animals, with an equal number of males and females. The polypeptide compound was dissolved in 1× PBS, and the polypeptide compound solution was then administered via intravenous infusion over 10 min. The blood collection time points were as follows: before infusion (0 h), 5 min after the start of bolus injection, and 0 min, 2 min, 5 min, 10 min, 15 min, 30 min, 1 h, 2 h, 4 h, 8 h, and 24 h after the end of bolus injection. At each time point, 0.5 mL of blood was collected and transferred to an EDTA-K2 anticoagulation centrifuge tube. Meanwhile, 50 µL of a protease inhibitor was added. After thorough mixing, the mixture was centrifuged at 2000 g for 10 min (4 °C), and the plasma was separated within 1 h, aliquoted into cryopreservation tubes, and stored at -60 to -90 °C. The blood collection-to-centrifugation process was performed under ice bath conditions.
The plasma concentrations of the test compounds were determined using the method in Test Example 3.4.3. Plasma concentration-time curves were plotted, and the pharmacokinetic parameters were calculated using PKSolver software.

[1] = beagle dogs, intravenous infusion over 10 min, 0.4 nmol/g, Male
[2] = beagle dogs, intravenous infusion over 10 min, 1.2 nmol/g, Female
[3] = beagle dogs, intravenous infusion over 10 min, 1.2 nmol/g, Male
[4] = both sexes, beagle, dog, in vivo, iv, dogs, same dose (1.2 nmol/g), read-out: average T1/2 (converted)
[5] = dog, plasma, beagle dogs, intravenous infusion over 10 min, 0.4 nmol/g, Female
[6] = dog, plasma, beagle dogs, intravenous infusion over 10 min, 0.4 nmol/g, Male
[7] = dog, plasma, beagle dogs, intravenous infusion over 10 min, 1.2 nmol/g, Female
[8] = dog, plasma, beagle dogs, intravenous infusion over 10 min, 1.2 nmol/g, Male
[9] = dog, in vivo, beagle dogs, intravenous infusion over 10 min, 1.2 nmol/g, Female
[10] = dog, in vivo, beagle dogs, intravenous infusion over 10 min, 1.2 nmol/g, Male

CC(C)[C@H](NC(=O)[C@H](CC(=O)O)NC(=O)[C@@H](NC(=O)[C@@H](NC(=O)[C@@H](NC(=O)[C@@H](NC(=O)[C@H](CCN)NC(=O)C(C)(C)NC(=O)CNC(=O)[C@@H](CCCNC(=N)N)NC(=O)[C@H](CCCNC(=N)N)NC(=O)[C@H](CCCNC(=N)N)NC(=O)[C@H](CCC(N)=O)NC(=O)[C@@H](CCCNC(=N)N)NC(=O)[C@H](CCCNC(=N)N)NC(=O)[C@H](CCCCN)NC(=O)[C@H](CCCCN)NC(=O)[C@H](N)CCCNC(=N)N)[C@@H](C)O)C(C)(C)C)C(C)(C)C)[C@@H](C)O)C(=O)O [Polypeptide compound 22, r-K-K-R-r-Q-R-R-r-G-Aib-Dab-T-Tle-Tle-T-D-V] (H-[dR]KKR[dR]QRR[dR]G[Aib][Dab]T[Tle][Tle]TDV-OH)
AUClast/dose (beagle dogs, intravenous infusion over 10 min, 0.4 nmol/g, Female): 5730
AUClast/dose [1]: 4513
Tmax [1]: 10.2 min
AUClast/dose [2]: 6558
T1/2 [2]: 255 min
AUClast/dose [3]: 8183
T1/2 [3]: 354 min
Tmax [3]: 10.8 min
half-life [4]: 306 min
AUC(0-inf) [5]: 5890 ng·h/mL
Cmax [5]: 3930 ng/mL
MRT [5]: 220 min
half-life (dog, plasma, beagle dogs, intravenous infusion over 10 min, 0.4 nmol/g, Female, read-out: T1/2 (converted)): 170 min
Tmax (dog, plasma, beagle dogs, intravenous infusion over 10 min, 0.4 nmol/g, Female, read-out: Tmax): 10.2 min
AUC(0-inf) [6]: 5170 ng·h/mL
Cmax [6]: 2320 ng/mL
MRT [6]: 277 min
half-life (dog, plasma, beagle dogs, intravenous infusion over 10 min, 0.4 nmol/g, Male, read-out: T1/2 (converted)): 202 min
AUC(0-inf) [7]: 18000 ng·h/mL
Cmax [7]: 8130 ng/mL
MRT [7]: 295 min
Tmax (dog, plasma, beagle dogs, intravenous infusion over 10 min, 1.2 nmol/g, Female, read-out: Tmax): 10.8 min
AUC(0-inf) [8]: 23500 ng·h/mL
Cmax [8]: 7680 ng/mL
MRT [8]: 422 min
average AUC, times that of NA-1 (dogs, same dose (1.2 nmol/g)): 21.3 times
average Cmax, times that of NA-1 (dogs, same dose (1.2 nmol/g)): 1.3 times

YGRKKRRQRRRKLSSIESDV [NA-1, YGRKKRRQR RRKLSSIESDV, reference compound]
AUClast/dose [2]: 284
T1/2 [2]: 2.4 min
AUClast/dose [3]: 363
T1/2 [3]: 3 min
half-life [4]: 2.7 min
AUC(0-inf) [9]: 855 ng·h/mL
Cmax [9]: 5030 ng/mL
MRT [9]: 9 min
Tmax (dog, in vivo, beagle dogs, intravenous infusion over 10 min, 1.2 nmol/g, Female, read-out: Tmax): 7.8 min
AUC(0-inf) [10]: 1100 ng·h/mL
Cmax [10]: 6780 ng/mL
MRT [10]: 9.6 min
Tmax (dog, in vivo, beagle dogs, intravenous infusion over 10 min, 1.2 nmol/g, Male, read-out: Tmax): 10.2 min
